Source: ChEMBL document CHEMBL1143809, “New bis-N9-(methylphenylmethyl)purine derivatives: synthesis and antitumor activity” (2007)

How the values were obtained:
Format in all cases: functional
MDA-MB-435 = assay: Growth inhibition of human MDA-MB-435 cells after 48 hrs by SRB protein assay; conditions: MDA-MB-435, 48 h
SK-MEL-2 = assay: Growth inhibition of human SK-MEL-2 cells after 48 hrs by SRB protein assay; conditions: SK-MEL-2, 48 h
NCI-H460 = assay: Anticancer activity against human NCL-H460 cells assessed as growth at 100 uM after 48 hrs by SRB protein assay relative to control; conditions: NCI-H460, 48 h, read-out: Activity
U-251 = assay: Growth inhibition of human U251 cells after 48 hrs by SRB protein assay; conditions: U-251, 48 h
EKVX = assay: Growth inhibition of human EKVX cells after 48 hrs by SRB protein assay
BT-549 = assay: Growth inhibition of human BT549 cells after 48 hrs by SRB protein assay; conditions: BT-549, 48 h
HOP-92 = assay: Growth inhibition of human HOP92 cells after 48 hrs by SRB protein assay; conditions: HOP-92, 48 h
SF-539 = assay: Growth inhibition of human SF539 cells after 48 hrs by SRB protein assay; conditions: SF-539, 48 h
UACC-257 = assay: Growth inhibition of human UACC257 cells after 48 hrs by SRB protein assay; conditions: UACC-257, 48 h
SNB-75 = assay: Growth inhibition of human SNB75 cells after 48 hrs by SRB protein assay; conditions: SNB-75, 48 h
CAKI-1 = assay: Growth inhibition of human CAKI1 cells after 48 hrs by SRB protein assay; conditions: CAKI-1, 48 h
A498 = assay: Growth inhibition of human A498 cells after 48 hrs by SRB protein assay; conditions: A498, 48 h
SK-MEL-5 = assay: Growth inhibition of human SK-MEL-5 cells after 48 hrs by SRB protein assay; conditions: SK-MEL-5, 48 h
IGROV-1 = assay: Growth inhibition of human IGROV1 cells after 48 hrs by SRB protein assay; conditions: IGROV-1, 48 h
[1] = Growth inhibition of human NCL-H226 cells after 48 hrs by SRB protein assay; conditions: NCL-H226, 48 h
[2] = Growth inhibition of human NCL-H522 cells after 48 hrs by SRB protein assay; conditions: NCL-H522, 48 h
Hs-578T = assay: Growth inhibition of human HS578T cells after 48 hrs by SRB protein assay
[3] = Growth inhibition of human LOX MIVI cells after 48 hrs by SRB protein assay
HOP-62 = assay: Growth inhibition of human HOP62 cells after 48 hrs by SRB protein assay; conditions: HOP-62, 48 h
T47D = assay: Growth inhibition of human T47D cells after 48 hrs by SRB protein assay
HT-29 = assay: Growth inhibition of human HT29 cells after 48 hrs by SRB protein assay; conditions: HT-29, 48 h
CCRF-CEM = assay: Growth inhibition of human CCRF-CEM cells after 48 hrs by SRB protein assay
MOLT-4 = assay: Growth inhibition of human MOLT4 cells after 48 hrs by SRB protein assay; conditions: MOLT-4, 48 h
COLO 205 = assay: Growth inhibition of human COLO205 cells after 48 hrs by SRB protein assay; conditions: COLO 205, 48 h
SF-295 = assay: Growth inhibition of human SF295 cells after 48 hrs by SRB protein assay; conditions: SF-295, 48 h
HCC 2998 = assay: Growth inhibition of human HCC2998 cells after 48 hrs by SRB protein assay; conditions: HCC 2998, 48 h
RPMI-8226 = assay: Growth inhibition of human RPMI8226 cells after 48 hrs by SRB protein assay; conditions: RPMI-8226, 48 h
HCT-116 = assay: Growth inhibition of human HCT116 cells after 48 hrs by SRB protein assay; conditions: HCT-116, 48 h
[4] = Growth inhibition of human NCL-H23 cells after 48 hrs by SRB protein assay; conditions: NCL-H23, 48 h
SN12C = assay: Growth inhibition of human SN12C cells after 48 hrs by SRB protein assay
[5] = Growth inhibition of human NCL-H322M cells after 48 hrs by SRB protein assay
UACC-62 = assay: Growth inhibition of human UACC62 cells after 48 hrs by SRB protein assay; conditions: UACC-62, 48 h
K562 = assay: Growth inhibition of human K562 cells after 48 hrs by SRB protein assay; conditions: K562, 48 h
[6] = read-out: LC50 (the source's name)

## Clc1nc(Cl)c2ncn(Cc3cccc(Cn4cnc5c(Cl)nc(Cl)nc54)c3)c2n1
MDA-MB-435
  GI50: 7.24 µM
  LC50: 58.9 µM
  TGI: 22.4 µM
SK-MEL-2
  GI50: 2.81 µM
  TGI: 7.76 µM
SK-MEL-2; [6]
  CC50: 35.5 µM
NCI-H460
  growth at 100 µM: 0%
U-251
  GI50: 3.89 µM
  TGI: 13.8 µM
U-251; [6]
  CC50: 38.9 µM
EKVX
  GI50: 3.09 µM
  LC50: 41.7 µM
  TGI: 11 µM
BT-549
  GI50: 3.38 µM
  TGI: 11 µM
BT-549; [6]
  CC50: 34.7 µM
HOP-92
  GI50: 6.16 µM
  LC50: 70.8 µM
  TGI: 22.4 µM
SF-539
  GI50: 1.38 µM
  LC50: 7.07 µM
  TGI: 3.16 µM
UACC-257
  GI50: 4.78 µM
  TGI: 17.4 µM
UACC-257; [6]
  CC50: 56.2 µM
SNB-75
  GI50: 2.23 µM
  TGI: 5.62 µM
SNB-75; [6]
  CC50: 93.3 µM
CAKI-1
  GI50: 12 µM
  TGI: 26.3 µM
CAKI-1; [6]
  CC50: 57.5 µM
A498
  GI50: 4.57 µM
  TGI: 17.4 µM
A498; [6]
  CC50: 46.8 µM
SK-MEL-5
  GI50: 2.45 µM
  LC50: 22.4 µM
  TGI: 5.88 µM
IGROV-1
  GI50: 7.41 µM
  LC50 (50% lethal concentration): 47.9 µM
  TGI: 20.4 µM
[1]
  GI50: 4.78 µM
  LC50: > 100 µM
  TGI: 26.9 µM
[2]
  GI50: 2.88 µM
  LC50: 41.7 µM
  TGI: 7.07 µM
Hs-578T
  GI50: 2.69 µM
  LC50 (concentration killing 50% of cells): 83.2 µM
  TGI: 7.24 µM
[3]
  GI50: 2.23 µM
  LC50: 21.9 µM
  TGI: 5.62 µM
HOP-62
  GI50: 5.01 µM
  LC50: 51.3 µM
  TGI: 17.8 µM
T47D
  GI50: 3.02 µM
  LC50: > 100 µM
  TGI: 8.51 µM
HT-29
  GI50: 4.46 µM
  LC50: > 100 µM
  TGI: > 100 µM
CCRF-CEM
  GI50: 2.23 µM
  TGI: 5.37 µM
CCRF-CEM; [6]
  CC50: > 100 µM
MOLT-4
  GI50: 3.46 µM
  LC50: > 100 µM
  TGI: 13.8 µM
COLO 205
  GI50: 3.38 µM
  LC50: > 100 µM
  TGI: > 11.2 µM
SF-295
  GI50: 16.6 µM
  LC50: 57.5 µM
  TGI: 30.9 µM
HCC 2998
  GI50: 2.39 µM
  LC50: 25.7 µM
  TGI: 7.07 µM
RPMI-8226
  GI50: 2.57 µM
  TGI: 11.2 µM
RPMI-8226; [6]
  CC50: > 100 µM
HCT-116
  GI50: 5.75 µM
  TGI: 22.4 µM
HCT-116; [6]
  CC50: 9.33 µM
[4]
  GI50: 8.51 µM
  LC50: 52.5 µM
  TGI: 21.9 µM
SN12C
  GI50: 4.67 µM
  LC50: 60.2 µM
  TGI: 18.2 µM
[5]
  GI50: 14.1 µM
  TGI: 27.5 µM
[5]; [6]
  CC50: 52.5 µM
UACC-62
  GI50: 2.39 µM
  LC50 (concentration killing 50% of cells): 22.4 µM
  TGI: 5.88 µM
K562
  GI50: 3.09 µM
  TGI: 17 µM
K562; [6]
  CC50: > 100 µM
